# Test results: patent EP4667464A1 (Cyrus Therapeutics Inc., priority 2023, dated 2024)
# Read-outs that look alike come from different tables or passages of the source.
# Key:
# SOS1 = molecular target: T1, SOS1 (Homo sapiens, UniProt Q07889); test: SOS-catalyzed nucleotide exchange assay (HTRF, SOS1-mediated GTP loading of KRAS G12D); type: biochemical
# T1 construct: HIS-SOS1cat (160 nM; Cytoskeleton, US); His (N); purchased Cytoskeleton
# T1 sequence (Q07889 564-1049 limits assumed): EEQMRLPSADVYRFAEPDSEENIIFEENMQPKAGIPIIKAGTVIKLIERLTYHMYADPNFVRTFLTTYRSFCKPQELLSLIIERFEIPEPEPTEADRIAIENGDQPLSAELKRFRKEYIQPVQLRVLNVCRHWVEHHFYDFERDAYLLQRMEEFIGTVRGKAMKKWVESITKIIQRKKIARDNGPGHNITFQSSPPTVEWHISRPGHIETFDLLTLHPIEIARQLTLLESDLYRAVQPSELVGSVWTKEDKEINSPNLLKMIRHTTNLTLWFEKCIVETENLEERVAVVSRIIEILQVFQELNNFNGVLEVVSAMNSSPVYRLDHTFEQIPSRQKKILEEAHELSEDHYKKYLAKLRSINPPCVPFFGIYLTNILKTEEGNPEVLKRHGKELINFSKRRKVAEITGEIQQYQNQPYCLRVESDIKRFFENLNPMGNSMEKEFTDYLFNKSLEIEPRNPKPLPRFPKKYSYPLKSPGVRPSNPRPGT
# [1] = test system: lung cancer cell line NCI-H358 having the KRAS G12C variant; test: Cancer cell growth inhibition, 3D spheroids (CellTiter-Glo 3D); type: cell-based; conditions: read-out: H358 cell viability
# Procedure, shortened: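 NCI-H358 (KRAS G12C) spheroids lysed with CellTiter-Glo 3D for 30 min with shaking after 10 min at room temperature. Growth in compound-treated wells expressed relative to untreated wells set to 100%.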
# KRAS G12C::SOS1 = molecular target: T2, KRAS G12C::SOS1 (Homo sapiens, UniProt Q07889); test: KRAS G12C::SOS1 protein-protein interaction (PPI) inhibition assay (HTRF); type: binding
# T2 construct: purchased CISBIO 64KRASG12PEH
# T2 sequence (Q07889 1-1333): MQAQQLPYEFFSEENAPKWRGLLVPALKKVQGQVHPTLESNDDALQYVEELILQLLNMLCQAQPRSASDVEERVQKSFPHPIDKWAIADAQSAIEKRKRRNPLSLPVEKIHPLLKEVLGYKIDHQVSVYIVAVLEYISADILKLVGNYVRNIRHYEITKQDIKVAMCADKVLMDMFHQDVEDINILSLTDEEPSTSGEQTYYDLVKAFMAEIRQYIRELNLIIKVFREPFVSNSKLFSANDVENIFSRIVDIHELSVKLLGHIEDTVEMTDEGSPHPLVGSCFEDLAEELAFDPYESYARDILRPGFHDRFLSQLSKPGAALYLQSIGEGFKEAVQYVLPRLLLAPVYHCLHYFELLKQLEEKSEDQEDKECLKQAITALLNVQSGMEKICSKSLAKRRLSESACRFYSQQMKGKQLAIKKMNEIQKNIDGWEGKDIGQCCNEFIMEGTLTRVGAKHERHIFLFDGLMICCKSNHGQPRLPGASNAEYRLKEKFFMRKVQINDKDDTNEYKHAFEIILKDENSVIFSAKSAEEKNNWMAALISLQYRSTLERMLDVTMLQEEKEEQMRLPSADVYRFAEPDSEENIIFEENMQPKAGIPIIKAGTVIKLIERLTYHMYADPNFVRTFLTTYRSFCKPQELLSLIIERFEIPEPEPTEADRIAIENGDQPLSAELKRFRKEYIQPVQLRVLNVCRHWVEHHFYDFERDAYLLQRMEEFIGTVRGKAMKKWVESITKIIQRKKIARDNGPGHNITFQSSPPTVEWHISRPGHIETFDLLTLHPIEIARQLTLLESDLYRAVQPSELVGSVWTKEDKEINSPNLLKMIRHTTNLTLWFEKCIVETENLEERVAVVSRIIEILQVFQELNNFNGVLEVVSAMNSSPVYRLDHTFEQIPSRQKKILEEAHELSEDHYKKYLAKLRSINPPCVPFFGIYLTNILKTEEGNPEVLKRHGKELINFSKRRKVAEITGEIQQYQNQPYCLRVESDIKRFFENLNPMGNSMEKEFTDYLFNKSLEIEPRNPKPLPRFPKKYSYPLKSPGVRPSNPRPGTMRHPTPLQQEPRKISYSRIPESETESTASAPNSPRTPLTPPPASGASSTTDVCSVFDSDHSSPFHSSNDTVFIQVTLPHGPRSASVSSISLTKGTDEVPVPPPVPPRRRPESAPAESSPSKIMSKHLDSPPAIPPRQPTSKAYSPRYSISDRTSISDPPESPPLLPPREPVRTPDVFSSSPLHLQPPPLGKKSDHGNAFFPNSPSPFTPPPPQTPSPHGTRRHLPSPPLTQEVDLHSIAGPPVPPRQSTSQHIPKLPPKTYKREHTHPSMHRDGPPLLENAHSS
# Procedure, shortened: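 Compounds, at eight 3-fold dilutions from 3 µM, were mixed with GTP-loaded Tag1-KRAS G12C, Tag2-SOS1 and a terbium-cryptate donor plus XL665 acceptor antibody pair. After 2 h at room temperature, time-resolved FRET reported the KRAS–SOS1 interaction.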
# [2] = GST-KRAS G12D, HIS-SOS1cat, compound 128 pM to 10 µM, read-out: SOS-catalyzed nucleotide exchange assay
# [3] = Homo sapiens, NCI-H358, 120 h, 3D spheroids, 0.002-10 µM, 5 days
# [4] = 8 concentrations from 3 µM, three replicates, read-out: KRAS G12C::SOS1 PPI
IC50 (SOS1; [2]),"IC50 [1, 3]",IC50 (KRAS G12C::SOS1; [4]),"IC50 ([1]; 3D spheroids, 0.002-10 µM, 5 days)",Compound,IC50 (SOS1),"IC50 ([1]; Homo sapiens, NCI-H358, 120 h)",IC50 (KRAS G12C::SOS1)
< 50 nM,< 1000 nM,50 to 150 nM,–,"CCn1nncc1-c1cncc(-n2nc(C(=O)N[C@H](C)c3cccc(C(F)(F)F)c3F)cc(CO)c2=O)c1 [Example 6-4, N-{ (R)-1-[2-fluoro-3-(trifluoromethyl)phenyl]ethyl}-1-[5-(1-ethyl-1H-1,2,3-triazol-5-yl)-3-pyridyl]-5-(hydroxymethyl)-6-oxo-1,6-dihydropyridazine-3-carboxamide]",–,–,–
50 to 150 nM,< 1000 nM,< 50 nM,–,"Cc1cc(C(=O)N[C@H](C)c2cccc(C(F)(F)F)c2F)nn(-c2cncc(-c3cnnn3C)c2)c1=O [Example 7-3, N-{ (R)-1-[2-fluoro-3-(trifluoromethyl)phenyl]ethyl}-5-methyl-1-[5-(1-methyl-1H-1,2,3-triazol-5-yl)-3-pyridyl]-6-oxo-1,6-dihydropyridazine-3-carboxamide]",–,–,–
< 50 nM,< 1000 nM,50 to 150 nM,–,"CC(C)n1nncc1-c1cncc(-n2nc(C(=O)N[C@H](C)c3cccc(C(F)(F)F)c3F)cc(CO)c2=O)c1 [Example 6-2, N-{(1R)-1-[2-fluoro-3-(trifluoromethyl)phenyl]ethyl}-1-[5-(1-isopropyl-1H-1,2,3-triazol-5-yl)-3-pyridyl]-5-(hydroxymethyl)-6-oxo-1,6-dihydropyridazine-3-carboxamide]",–,–,–
< 50 nM,< 1000 nM,50 to 150 nM,–,"CCn1nncc1-c1cncc(-n2nc(C(=O)N[C@H](C)c3cccc(C(F)(F)F)c3F)ccc2=O)c1 [Example 1-12, N-[(1R)-1-[2-fluoro-3-(trifluoromethyl)phenyl]ethyl]-1-[5-(3-ethyltriazol-4-yl)-3-pyridyl]-6-oxo-pyridazine-3-carboxamide]",–,–,–
< 50 nM,< 1000 nM,< 50 nM,–,"C[C@@H](NC(=O)c1ccc(=O)n(-c2cncc(-c3cnnn3C3CC3)c2)n1)c1cccc(C(F)(F)F)c1F [Example 1-50, N-[(1R)-1-[2-fluoro-3-(trifluoromethyl)phenyl]ethyl]-1-[5-(1-cyclopropyl-1H-1,2,3-triazol-5-yl)-3-pyridyl]-6-oxo-pyridazine-3-carboxamide]",–,–,–
< 50 nM,< 1000 nM,< 50 nM,–,"[2H]C([2H])([2H])n1nncc1-c1cncc(-n2nc(C(=O)N[C@H](C)c3cccc(C(F)(F)CO)c3F)ccc2=O)c1 [Example 1-7, N-[(1R)-1-[3-(1,1-difluoro-2-hydroxy-ethyl)-2-fluoro-phenyl]ethyl]-6-oxo-1-[5-[3-(trideuteriomethyl)triazol-4-yl]-3-pyridyl]pyridazine-3-carboxamide]",–,–,–
< 50 nM,< 1000 nM,< 50 nM,–,[2H]C([2H])([2H])n1nncc1-c1cncc(-n2nc(C(=O)N[C@H](C)c3cc(N)cc(C(F)(F)F)c3)ccc2=O)c1 [Example 1-58],–,–,–
< 50 nM,< 1000 nM,< 50 nM,–,"Cc1cc(C(=O)N[C@H](C)c2cccc(C(F)(F)CO)c2F)nn(-c2cncc(-c3cnnn3C3CC3)c2)c1=O [Example 1-40, N-{(R)-1-[3-(1,1-difluoro-2-hydroxyethyl)-2-fluorophenyl]ethyl}-1-[5-(1-cyclopropyl-1H-1,2,3-triazol-5-yl)-3-pyridyl]-5-methyl-6-oxo-1,6-dihydropyridazine-3-carboxamide]",–,–,–
< 50 nM,< 1000 nM,50 to 150 nM,–,"C[C@@H](NC(=O)c1ccc(=O)n(-c2cncc(-c3cnnn3C3CCC3)c2)n1)c1cccc(C(F)(F)F)c1F [Example 1-54, N-[(1R)-1-[2-fluoro-3-(trifluoromethyl)phenyl]ethyl]-1-[5-(1-cyclobutyl-1H-1,2,3-triazol-5-yl)-3-pyridyl]-6-oxo-pyridazine-3-carboxamide]",–,–,–
50 to 150 nM,> 3000 nM,< 50 nM,–,"[2H]C([2H])([2H])n1nncc1-c1cncc(-n2nc(C(=O)N[C@H](C)c3cccc(C(F)F)c3F)ccc2=O)c1 [Example 1-6, N-[(1R)-1-[3-(difluoromethyl)-2-fluoro-phenyl]ethyl]-6-oxo-1-[5-[3-(trideuteriomethyl)triazol-4-yl]-3-pyridyl]pyridazine-3-carboxamide]",–,–,–
–,–,–,–,"C[C@@H](NC(=O)c1ccc(=O)n(-c2cnnc(-c3cnnn3C)c2)n1)c1cccc(C(F)(F)F)c1F [Example 4, N-[(1R)-1-[2-fluoro-3-(trifluoromethyl)phenyl]ethyl]-1-[6-(3-methyltriazol-4-yl)pyridazin-4-yl]-6-oxo-pyridazine-3-carboxamide]",> 150 nM,> 3000 nM,> 150 nM
–,–,–,–,"C[C@@H](NC(=O)c1ccc(=O)n(-c2cncc(-c3cnnn3C)c2)n1)c1cccc(C(F)(F)CO)c1F [Example 1, N-[(1R)-1-[3-(1,1-difluoro-2-hydroxy-ethyl)-2-fluoro-phenyl]ethyl]-1-[5-(3-methyltriazol-4-yl)-3-pyridyl]-6-oxo-pyridazine-3-carboxamide]",< 50 nM,< 1000 nM,< 50 nM
50 to 150 nM,> 3000 nM,< 50 nM,–,"[2H]C([2H])([2H])n1nncc1-c1cncc(-n2nc(C(=O)N[C@H](C)c3cc(N)cc(C(F)F)c3)ccc2=O)c1 [Example 1-4, N-[(1R)-1-[3-amino-5-(difluoromethyl)phenyl]ethyl]-6-oxo-1-[5-[3-(trideuteriomethyl)triazol-4-yl]-3-pyridyl]pyridazine-3-carboxamide]",–,–,–
50 to 150 nM,> 3000 nM,> 150 nM,–,"C[C@@H](NC(=O)c1ccc(=O)n(-c2cnnc(-c3ccnn3C)c2)n1)c1cccc(C(F)(F)CO)c1F [Example 1-20, N-[(1R)-1-[3-(1,1-difluoro-2-hydroxy-ethyl)-2-fluoro-phenyl]ethyl]-1-[6-(2-methylpyrazol-3-yl)pyridazin-4-yl]-6-oxo-pyridazine-3-carboxamide]",–,–,–
50 to 150 nM,–,50 to 150 nM,< 1000 nM,"N-[(1R)-1-[3-(1,1-difluoro-2-hydroxy-ethyl)-2-fluoro-phenyl]ethyl]-1-[5-(2-methylpyrazol-3-yl)-3-pyridyl]-6-oxo-pyridazine-3-carboxamide [Example 1-16]",–,–,–
50 to 150 nM,< 1000 nM,> 150 nM,–,"C[C@@H](NC(=O)c1ccc(=O)n(-c2cncc(-c3ccnn3C)c2)n1)c1cccc(C(F)(F)F)c1F [Example 1-17, N-[(1R)-1-[2-fluoro-3-(trifluoromethyl)phenyl]ethyl]-1-[5-(2-methylpyrazol-3-yl)-3-pyridyl]-6-oxo-pyridazine-3-carboxamide]",–,–,–
